According to ChEMBL document CHEMBL1201862, “PubChem BioAssay data set” (2004):
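48-hour exposure; five concentrations; linearly interpolated endpoints. GI50: concentration for 50% inhibition of growth.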 Calls of active or inactive are those of the source. Rule as the data show it: active = GI50 up to about 1.1 µM and inactive = higher.

Legend:
Assay in all cases: NCI tumour cell line growth inhibition, 48 h
[1] = tested on: 786-0
[2] = tested on: ACHN
[3] = tested on: BT-549
[4] = tested on: CAKI-1
[5] = tested on: EKVX
[6] = tested on: HCT-116
[7] = tested on: HL-60
[8] = tested on: HOP-62
[9] = tested on: HOP-92
[10] = tested on: K562
[11] = tested on: MDA-MB-435
[12] = tested on: NCI-H226
[13] = tested on: OVCAR-3
[14] = tested on: OVCAR-4
[15] = tested on: OVCAR-5
[16] = tested on: OVCAR-8
[17] = tested on: RPMI-8226
[18] = tested on: SF-539
[19] = tested on: UACC-257
[20] = tested on: SNB-19

Measured: GI50

O=P1(N(CCCl)CCCl)Oc2ccc(Cl)cc2Sc2c(ccc(Cl)c2Cl)O1 (centres undefined)
inactive: [1] 8.13 µM | [2] 7.41 µM | [3] 29.1 µM | [4] 15.2 µM | [5] 8.57 µM | [6] 4.97 µM | [7] 4.1 µM | [8] 16 µM | [9] 4.42 µM | [10] 3.47 µM | [11] 7.1 µM | [12] 8.26 µM | [13] 4.95 µM | [14] 23.9 µM | [15] 27.4 µM | [16] 8.71 µM | [17] 5.02 µM | [18] 23.3 µM | [19] 10.4 µM

O=C1CSC(c2ccccc2O)N1c1ccc(-c2ccc(-n3c(-c4ccccc4)nc4ccccc4c3=O)cc2)cc1 (centres undefined)
inactive: [1] 18.7 µM | [3] 13.7 µM | [4] 26.1 µM | [5] 37.4 µM | [6] 29.5 µM | [7] 23.4 µM | [8] 39.6 µM | [9] 27.6 µM | [10] 24.9 µM | [11] 33.5 µM | [12] 37.6 µM | [13] 34.8 µM | [14] 31 µM | [15] 43.1 µM | [16] 24.3 µM | [17] 33.6 µM | [18] 32.1 µM | [20] 50.6 µM | [19] 50.1 µM

COc1ccc(C2=C(N)c3ccccc3C2=O)cc1
inactive: [1] 52.1 µM | [2] 63.2 µM | [3] 48.6 µM | [4] > 100 µM | [5] > 100 µM | [6] 87.5 µM | [7] > 100 µM | [8] 31.2 µM | [9] 27.9 µM | [11] > 100 µM | [12] 45.6 µM | [13] > 100 µM | [14] 96.4 µM | [15] > 100 µM | [16] 37.8 µM | [17] > 100 µM | [18] 40.9 µM | [20] 25.7 µM | [19] > 100 µM

O=C(C1OC1c1ccc(Cl)cc1)C12CC3CC(CC(C3)C1)C2 (centres undefined)
inactive: [1] 16.3 µM | [2] 35.4 µM | [3] 19.9 µM | [4] 28.8 µM | [5] 23.1 µM | [6] 12.4 µM | [7] 18.3 µM | [8] 24.8 µM | [9] 16.9 µM | [10] 25.1 µM | [11] 14.3 µM | [12] 18.3 µM | [13] 15.8 µM | [14] 15.4 µM | [15] 24.2 µM | [16] 16.5 µM | [18] 17.3 µM | [20] 31.5 µM | [19] 21.6 µM

Cc1c(-c2ccccc2)c(C#N)c2nnn(-c3ccc([N+](=O)[O-])cc3)c(=O)n12
inactive: [1] 5.14 µM | [2] 22.2 µM | [3] 26.9 µM | [4] 29.9 µM | [5] 6.32 µM | [6] 24.5 µM | [7] 1.92 µM | [8] 13.6 µM | [9] 16.5 µM | [10] 20.5 µM | [11] 24.8 µM | [12] 13.2 µM | [13] 15.3 µM | [14] 10.4 µM | [15] 27.4 µM | [16] 10.9 µM | [17] 20.7 µM | [18] 10.1 µM | [19] > 100 µM

COC(=O)c1cc2c3c(c1)Oc1cc(C(=O)OC)cc4c1C3c1c(cc(C(=O)OC)cc1O4)O2
inactive: [1] 11 µM | [2] 11.7 µM | [3] 20.5 µM | [4] 14 µM | [5] 16.4 µM | [6] 18.6 µM | [7] 3.03 µM | [8] 11.4 µM | [9] 19.4 µM | [10] 11.5 µM | [11] 9.68 µM | [12] 3.82 µM | [13] 10.3 µM | [14] 34 µM | [15] 24.5 µM | [17] 6.44 µM | [18] 15.1 µM | [20] 20 µM | [19] 27.4 µM

CC(C)(C)OC(=O)[C@@H]1CCC(=O)N1C1(c2ccccc2)c2ccccc2-c2ccccc21
inactive: [1] 38.8 µM | [2] 26.9 µM | [3] > 100 µM | [4] 88.5 µM | [5] 82.8 µM | [6] 37.8 µM | [7] 37.2 µM | [8] 58.5 µM | [9] 26.3 µM | [10] 41 µM | [11] 30.1 µM | [12] > 100 µM | [13] 27.4 µM | [14] 28.6 µM | [15] 93.1 µM | [16] 88.1 µM | [18] 17.1 µM | [20] > 100 µM | [19] 77.1 µM

NC(=O)c1cc2ccc(O)cc2o/c1=N/c1ccccc1
inactive: [1] 30.3 µM | [2] 24.9 µM | [3] 24.4 µM | [4] 19.3 µM | [5] 31.1 µM | [6] 24.4 µM | [7] 25.1 µM | [8] 40.7 µM | [9] 34 µM | [10] 34.5 µM | [11] 23.3 µM | [12] 17.1 µM | [13] 35.2 µM | [14] 42.3 µM | [15] 67.9 µM | [16] 30.3 µM | [17] 20.7 µM | [20] 36 µM | [19] 39.3 µM

COc1cc(C(=O)Oc2ccc3c(c2)OCO3)cc(OC)c1OC
inactive: [1] > 100 µM | [2] > 100 µM | [3] > 100 µM | [4] > 100 µM | [7] > 100 µM | [8] > 100 µM | [9] > 100 µM | [11] > 100 µM | [12] > 100 µM | [13] > 100 µM | [14] > 100 µM | [15] > 100 µM | [16] > 100 µM | [17] > 100 µM | [18] > 100 µM | [20] > 100 µM | [19] > 100 µM

CC1=C(C(=O)NNC(=O)CC#N)CC(C(=O)NNC(=O)CC#N)=C(C)N1
inactive: [1] > 100 µM | [2] > 100 µM | [3] > 100 µM | [4] > 100 µM | [5] > 100 µM | [6] > 100 µM | [7] 82.6 µM | [8] > 100 µM | [9] > 100 µM | [11] > 100 µM | [12] > 100 µM | [13] > 100 µM | [14] > 100 µM | [15] > 100 µM | [16] > 100 µM | [18] > 100 µM | [20] > 100 µM | [19] > 100 µM

Cc1[nH]c(=O)nc(S)c1C(=O)Nc1cccc2cc3ccccc3cc12
inactive: [2] > 100 µM | [3] > 100 µM | [4] > 100 µM | [5] > 100 µM | [6] > 100 µM | [7] > 100 µM | [8] > 100 µM | [9] > 100 µM | [10] > 100 µM | [11] > 100 µM | [12] > 100 µM | [13] > 100 µM | [14] > 100 µM | [15] > 100 µM | [16] > 100 µM | [17] > 100 µM | [20] > 100 µM
